Data taken from patent US20070270461A1, “Fungicide” (Valent BioSciences Corporation, priority 2006, published 2007).

Columns and labels:
Botrytis cinerea [1] = experiment: Contact evaluation (microtiter plate); type: cell-based
Method: (§1) Compound solution: Contact evaluations were conducted to determine the anti-fungal activity of each compound against Botrytis cinerea, Sclerotinia sclerotiorum, Pythium aphanidermatum, Rhizoctonia solani, Cercospora arachidicola, Mycosphaerella fijiensis, and Monilinia laxa. Five milligrams of each compound were dissolved in 0.5 milliliter of DMSO for a compound stock solution of 1.0% w/v. Compound stock solutions were serial diluted with DMSO to 20, 10, and 2 ppm final well concentration.
(§2) Fungi preparation: Botrytis cinerea spores were taken from 6-week-old cultures grown at 22 C on full strength potato dextrous agar (PDA) plates. Sclerotinia sclerotiorum, Pythium aphanidermatum, Rhizoctonia solani, and Monilinia laxa mycelia were taken from 4- to 10-day-old shake flask cultures grown at room temperature on full strength potato dextrous broth (PDB). Cercospora arachidicola mycelia were taken from 10- to 14-day-old shake flask cultures grown at room temperature on a full strength PDB amended with peanut oil. Mycosphaerella fijiensis mycelia were taken from 10- to 14-day-old shake flask cultures grown at room temperature on V8 juice broth. Sclerotinia sclerotiorum, Pythium aphanidermatum, Rhizoctonia solani, Cercospora arachidicola, and Mycosphaerella fijiensis mycelia (0.4 g mycelia) were blended for 45 seconds in 20 mL sterile de-ionized water. Monilinia laxa mycelia (1 g mycelia) was blended for 45 seconds in 30 mL of sterile de-ionized water. Botrytis cinerea spores were diluted with quarter strength PDB to 1×10^5 spores/mL final well concentration. All mycelia were diluted in water (1:5 mycelia:water) before distributing into the wells.
(§3) Microtiter plate preparation: Compound solution (10 :L), quarter strength PDB (900 :L) and fungi preparation (100 :L) were sequentially distributed into 48-well microtiter plates (n=3 replications/compound/rate). A blank consisted of quarter strength PDB and fungi preparation. Commercial fungicide controls (100 ppm diluted with water) consisted of Scala for Botrytis cinerea, Dithane F-45 for Mycosphaerella fijiensis, and Benlate for Sclerotinia sclerotiorum, Pythium aphanidermatum, Rhizoctonia solani, Cercospora arachidicola, and Monilinia laxa. Plates were shaken in a circular rotator at room temperature for 20 minutes, then incubated at 25 C for 24 to 72 hours, depending on the pathogen.
(§4) Fungal control ratings: Fungal growth in wells containing the compounds were compared to the positive control and fungal inhibition was rated as full, partial, or none. Final readings were the average of the three wells (Table 1).

Cercospora arachidicola = experiment: Contact evaluation (microtiter plate); type: cell-based
Method: as §1, §2, §3, §4

Monilinia laxa = experiment: Contact evaluation (microtiter plate); type: cell-based
Method: as §1, §2, §3, §4

Mycosphaerella fijiensis = experiment: Contact evaluation (microtiter plate); type: cell-based
Method: as §1, §2, §3, §4

Pythium aphanidermatum = experiment: Contact evaluation (microtiter plate); type: cell-based
Method: as §1, §2, §3, §4

Rhizoctonia solani = experiment: Contact evaluation (microtiter plate); type: cell-based; conditions: Rhizoctinia solani
Method: as §1, §2, §3, §4

Sclerotinia sclerotiorum = experiment: Contact evaluation (microtiter plate); type: cell-based; conditions: Sclerotinia sclerotionum
Method: as §1, §2, §3, §4

Botrytis cinerea [2] = experiment: Detached bean leaf bioassay, fungal control; type: in vivo; conditions: 200 ppm on detached bean leaf; 100 minus percent necrotic area, three days after inoculation
Method: Compound solution: Compound solutions were prepared by diluting compound stock solutions (1.0% w/v compound in DMSO) to 200 ppm with 0.01% w/v Triton X-100. Spore solution preparation: Botrytis cinerea spores were taken from 6-week-old cultures grown at 22 C on full strength potato dextrous agar (PDA) plates and harvested in 1:16 frozen orange juice concentrate:water. Botrytis cinerea spore solutions were prepared by diluting spore cultures to 5×10^4 spores/mL with 1:16 frozen orange juice concentrate:water. Plant material: Middle trifoliate leaves of greenhouse grown Phaseolus vulgaris (Bush bean cv. Blue Lake 274) were excised and placed on a plastic grid above a tray containing moist towels. Treatment method: One half of the adaxial surface of the leaf was treated with the compound solution (100 :L) using a 3 cm Bacti Cell Spreader. A blank consisted of 0.01% w/v Triton X-100. A commercial fungicide control (200 ppm diluted with water) consisted of Scala. […] Fungal control rating: Three days after inoculation with Botrytis, the percent necrotic area under the inoculation droplet was determined. Since the areas under the blank (0.01% w/v Triton X-100) were 100% infected, fungal control was expressed as 100 minus the percent necrotic area, and thus 0% infected is 100% fungal control (n=3 leaves/compound, 5 inoculation droplets/leaf, Table 2).

[3] = tested on: Phaseolus vulgaris (Bush bean cv. Blue Lake 274) leaves; experiment: Detached bean leaf bioassay, phytotoxicity rating; type: in vivo; conditions: 200 ppm on detached bean leaf; rated no, slight, moderate or excessive phytotoxicity
Method: Compound solution: Compound solutions were prepared by diluting compound stock solutions (1.0% w/v compound in DMSO) to 200 ppm with 0.01% w/v Triton X-100. Plant material: Middle trifoliate leaves of greenhouse grown Phaseolus vulgaris (Bush bean cv. Blue Lake 274) were excised and placed on a plastic grid above a tray containing moist towels. Treatment method: One half of the adaxial surface of the leaf was treated with the compound solution (100 :L) using a 3 cm Bacti Cell Spreader. A blank consisted of 0.01% w/v Triton X-100. A commercial fungicide control (200 ppm diluted with water) consisted of Scala. After the solutions dried, the trays containing the leaves were covered and held one day in a growth chamber (22 C). The adaxial surfaces of the leaves were then inoculated with 5-60 :L droplets of Botrytis cinerea spore solution. Phytotoxicity ratings: Phytotoxicity was rated as 0=no phytotoxicity, 1=slight phytotoxicity, 2=moderate phytotoxicity, or 3=excessive phytotoxicity (Table 2).

SMILES: OCCOc1c(Br)cc(Br)c2cccnc12 [Example 1, 5,7-dibromo-8-(2-hydroxyethoxy) quinoline]
- Control of fungi (full, partial, none) (Botrytis cinerea [1]; fungicide rate 2 ppm): Partial
- Control of fungi (full, partial, none) (Botrytis cinerea [1]; fungicide rate 10 ppm): Full
- Control of fungi (full, partial, none) (Botrytis cinerea [1]; fungicide rate 20 ppm): Full
- Control of fungi (full, partial, none) (Cercospora arachidicola; fungicide rate 2 ppm): None
- Control of fungi (full, partial, none) (Cercospora arachidicola; fungicide rate 10 ppm): Full
- Control of fungi (full, partial, none) (Cercospora arachidicola; fungicide rate 20 ppm): Full
- Control of fungi (full, partial, none) (Monilinia laxa; fungicide rate 2 ppm): Full
- Control of fungi (full, partial, none) (Monilinia laxa; fungicide rate 10 ppm): Full
- Control of fungi (full, partial, none) (Monilinia laxa; fungicide rate 20 ppm): Full
- Control of fungi (full, partial, none) (Mycosphaerella fijiensis; fungicide rate 2 ppm): Full
- Control of fungi (full, partial, none) (Mycosphaerella fijiensis; fungicide rate 10 ppm): Full
- Control of fungi (full, partial, none) (Mycosphaerella fijiensis; fungicide rate 20 ppm): Full
- Control of fungi (full, partial, none) (Pythium aphanidermatum; fungicide rate 2 ppm): Full
- Control of fungi (full, partial, none) (Pythium aphanidermatum; fungicide rate 10 ppm): Full
- Control of fungi (full, partial, none) (Pythium aphanidermatum; fungicide rate 20 ppm): Full
- Control of fungi (full, partial, none) (Rhizoctonia solani; fungicide rate 2 ppm): Full
- Control of fungi (full, partial, none) (Rhizoctonia solani; fungicide rate 10 ppm): Full
- Control of fungi (full, partial, none) (Rhizoctonia solani; fungicide rate 20 ppm): Full
- Control of fungi (full, partial, none) (Sclerotinia sclerotiorum; fungicide rate 2 ppm): Full
- Control of fungi (full, partial, none) (Sclerotinia sclerotiorum; fungicide rate 10 ppm): Full
- Control of fungi (full, partial, none) (Sclerotinia sclerotiorum; fungicide rate 20 ppm): Full
- Botrytis cinerea control (200 ppm) (Botrytis cinerea [2]): 100%
- Phytotoxity (200 ppm) [3]: Slight
- melting point: 128 to 131 °C
